# Target: T1, c-Met kinase (recombinant c-Met) (Homo sapiens, UniProt P08581)
# T1 construct: 0.27 nM recombinant c-Met
# Assay: In vitro kinase assay I (homogeneous time-resolved fluorescence tyrosine kinase assay)
# Format: biochemical
# Procedure: The kinase activities of c-Met are measured using a modified version of the homogeneous-time-resolved tyrosine kinase assay described by Park et al. (1999, Anal. Biochem. 269:94-104).
# The procedure for determining the potency of a compound to inhibit c-Met kinase comprises the following steps: • 1. Prepare 3-fold serial diluted compound solutions in 100% dimethyl sulfoxide (DMSO) at 20× of the desired final concentrations in a 384-well plate. • 2. Prepare a master reaction mix containing 6.67 mM MgCl2, 133.3 mM NaCl, 66.7 mM Tris-HCl (pH 7.4), 0.13 mg/ml BSA, 2.67 mM dithiothreitol, 0.27 nM recombinant c-Met and 666.7 nM biotinylated synthetic peptide substrate (biotin-ahx-EQEDEPEGDYFEWLE-CONH2) (SEQ.ID.NO.:1). • 3. In a black assay plate, add 1.5 μl of compound solution (or DMSO) and 22.5 μl of master reaction mix per well. Initiate the kinase reaction by adding 6 μl of 0.25 mM MgATP per well. Allow the reactions to proceed for 60 min at room temperature. The final conditions for the reaction are 0.2 nM c-Met, 0.5 μM substrate, 50 μM MgATP, 5 mM MgCl2, 100 mM NaCl, 2 mM DTT, 0.1 mg/ml BSA, 50 mM Tris (pH 7.4) and 5% DMSO. • 4. Stop the kinase reaction with 30 μl of Stop/Detection buffer containing 10 mM EDTA, 25 mM HEPES, 0.1% TRITON X-100, 0.750 nM Eu-chelate labeled anti-phosphotyrosine antibody PY20 (cat. #AD0067, PerkinElmer) and 50 μg/ml Streptavidin-allophycocyanin conjugate (cat. #PJ25S, Prozyme). • 5. Read HTRF signals on a Victor reader (PerkinElmer) in HTRF mode after 60-min incubation at room temperature in the dark. • 6. IC50 is determined by fitting the observed relationship between compound concentration and HTRF signal with a 4-parameter logistic equation. II. GTL-16 pY1349 Cell-Based Assay
# T1 sequence (P08581 25-1390): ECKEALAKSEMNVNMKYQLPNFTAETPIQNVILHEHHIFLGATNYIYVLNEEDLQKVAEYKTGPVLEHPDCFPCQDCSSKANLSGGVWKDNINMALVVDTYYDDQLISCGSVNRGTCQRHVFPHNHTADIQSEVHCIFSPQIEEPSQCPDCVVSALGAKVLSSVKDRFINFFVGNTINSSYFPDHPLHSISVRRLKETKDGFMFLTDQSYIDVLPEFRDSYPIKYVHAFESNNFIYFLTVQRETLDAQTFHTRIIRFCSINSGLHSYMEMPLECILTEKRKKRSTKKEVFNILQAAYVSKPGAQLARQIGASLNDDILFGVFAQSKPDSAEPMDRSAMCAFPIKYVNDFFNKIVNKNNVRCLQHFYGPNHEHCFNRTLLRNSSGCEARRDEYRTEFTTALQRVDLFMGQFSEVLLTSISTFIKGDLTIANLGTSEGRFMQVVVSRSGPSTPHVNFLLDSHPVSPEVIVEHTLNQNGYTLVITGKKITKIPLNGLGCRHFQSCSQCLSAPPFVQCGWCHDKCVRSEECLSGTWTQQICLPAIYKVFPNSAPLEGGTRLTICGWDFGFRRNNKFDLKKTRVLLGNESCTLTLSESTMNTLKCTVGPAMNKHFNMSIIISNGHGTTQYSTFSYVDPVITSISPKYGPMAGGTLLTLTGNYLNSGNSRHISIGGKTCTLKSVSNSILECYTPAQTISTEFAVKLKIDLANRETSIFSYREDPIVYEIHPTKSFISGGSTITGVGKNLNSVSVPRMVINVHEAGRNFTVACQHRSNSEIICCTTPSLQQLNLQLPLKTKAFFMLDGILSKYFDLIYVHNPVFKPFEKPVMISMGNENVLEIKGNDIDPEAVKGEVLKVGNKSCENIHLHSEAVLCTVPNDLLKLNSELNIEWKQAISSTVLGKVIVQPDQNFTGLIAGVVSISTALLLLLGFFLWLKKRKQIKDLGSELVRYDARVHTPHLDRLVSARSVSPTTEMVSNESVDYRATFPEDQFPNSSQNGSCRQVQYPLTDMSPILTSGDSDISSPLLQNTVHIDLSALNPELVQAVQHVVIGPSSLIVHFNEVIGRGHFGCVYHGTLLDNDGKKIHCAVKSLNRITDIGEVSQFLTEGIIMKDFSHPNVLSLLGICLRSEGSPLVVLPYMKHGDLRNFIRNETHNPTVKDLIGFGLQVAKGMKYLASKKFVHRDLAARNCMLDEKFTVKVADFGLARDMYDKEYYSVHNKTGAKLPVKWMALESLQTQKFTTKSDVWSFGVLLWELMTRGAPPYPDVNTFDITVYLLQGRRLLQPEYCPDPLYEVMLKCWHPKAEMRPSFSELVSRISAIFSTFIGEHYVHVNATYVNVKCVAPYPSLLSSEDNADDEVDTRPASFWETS
row,IC50 [nM],SMILES
1,< 100,"COCCOC(=O)Nc1cccc(Cc2nn(-c3ccc(C#N)cc3)ccc2=O)c1 [Example 508, 2-methoxyethyl (3-{[1-(4-cyanophenyl)-4-oxo-1,4-dihydropyridazin-3-yl]methyl}phenyl)carbamate]"
2,< 100,"CN(C)CCCc1cnc(-c2cccc(Cc3nn(-c4cnn(C)c4)ccc3=O)c2)nc1 [Example 438, 3-(3-{5-[3-(dimethylamino)propyl]pyrimidin-2-yl}benzyl)-1-(1-methyl-1H-pyrazol-4-yl)pyridazin-4(1H)-one]"
3,< 100,"CC(C)COC(=O)Nc1cccc(Cc2nn(-c3cnn(CCCC(=O)N4CCCC4)c3)ccc2=O)c1 [Example 700, 2-methylpropyl [3-({4-oxo-1-[1-(4-oxo-4-pyrrolidin-1-ylbutyl)-1H-pyrazol-4-yl]-1,4-dihydropyridazin-3-yl}methyl)phenyl] carbamate]"
4,< 100,"Cn1cc(-n2ccc(=O)c(Cc3cccc(NC(=O)OCCN4CCNCC4)c3)n2)cn1 [Example 625, 2-piperazin-1-ylethyl (3-{[1-(1-methyl-1H-pyrazol-4-yl)-4-oxo-1,4-dihydropyridazin-3-yl]methyl}phenyl)carbmate]"
5,< 100,"COC/C=C/c1cnc(-c2cccc(Cc3nn(-c4cnn(C)c4)ccc3=O)c2)nc1 [Example 402, 3-(3-{5-[(1E)-3-methoxyprop-1-en-1-yl]pyrimidin-2-yl}benzyl)-1-(1-methyl-1H-pyrazol-4-yl)pyridazin-4(1H)-one]"

# The remaining lines, values behind:
row,SMILES,IC50 [nM]
1,"COC(C)(C)COc1cnc(-c2cccc(C(C)c3nn(-c4ccc(F)c(F)c4)ccc3=O)c2)nc1 (single isomer, unassigned) [Example 252, 1-(3,4-difluorophenyl)-3-[(1R or S)-1-{3-[5-(2-methoxy-2-methylpropoxy)pyrimidin-2-yl]phenyl}ethyl]pyridazin-4(1H)-one]",< 100
2,"CCOc1cnc(-c2cccc(C(C)c3nn(-c4cnn(C)c4)ccc3=O)c2)nc1 (single isomer, unassigned) [Example 201, 3-{(1S or R)-1-[3-(5-ethoxypyrimidin-2-yl)phenyl]ethyl}-1-(1-methyl-1H-pyrazol-4-yl)pyridazin-4(1H)-one]",100 to 1000
3,"CCOc1cnc(-c2cccc(Sc3nn(-c4cnn(C)c4)ccc3=O)c2)nc1 [Example 756, 3-{[3-(5-Ethoxypyrimidin-2-yl)phenyl]sulfanyl}-1-(1-methyl-1H-pyrazol-4-yl)pyridazin-4(1H)-one]",1000 to 3000
4,"CC(c1cccc(-c2ncc(Br)cn2)c1)c1nn(-c2cnn(C)c2)ccc1=O (single isomer, unassigned) [Example 241, 3-{(1S or R)-1-[3-(5-bromopyrimidin-2-yl)pheny]ethyl)}-1-(1-methyl-1H-pyrazol-4-yl)pyridazin-4(1H)-one]",100 to 1000
5,"COc1cnc(-c2cccc(Cc3nn(-c4cc(F)cc(C#N)c4)ccc3=O)c2)nc1 [Example 128, 3-fluoro-5-{3-[3-(5-methoxypyrimidin-2-yl)benzyl]-4-oxopyridazin-1(4H)-yl}benzonitrile]",< 100
6,"CC(C)(O)COc1cnc(-c2cccc(Cc3nn(-c4ccc(F)c(F)c4)ccc3=O)c2)nc1 [Example 360, 1-(3,4-difluorophenyl)-3-{3-[5-(2-hydroxy-2-methylpropoxy)pyrimidin-2-yl]benzyl}pyridazin-4(1H)-one]",< 100
7,"Cn1cc(-n2ccc(=O)c(Cc3cccc(-c4ncc(O[C@H]5CCC[C@@H]5O)cn4)c3)n2)cn1 (single isomer, unassigned) [Example 379]",< 100
8,"CCn1cc(-n2ccc(=O)c(C(C)c3cccc(-c4ncc(OC(C)C)cn4)c3)n2)cn1 (single isomer, unassigned) [Example 293, 1-(1-ethyl-1H-pyrazol-4-yl)-3-[(1R or S)-1-{3-[5-(1-methylethoxy)pyrimidin-2-yl]phenyl}ethyl]pyridazin-4(1H)-one]",< 100

# From US20120264735A1 (priority 2009, published 2012)
